Values of other authors in US11013707B2, “Administration of oral methyldopa” (ImmunoMolecular Therapeutics, LLC., priority 2018, dated 2021).
Read-outs that look alike come from different tables or passages of the source.

How the values were obtained:
[1] = man, average
[2] = in vivo

Compound	fraction of the dose available to the systemic circulation as free α-methyldopa ([1]; administered as tablets)	fraction of the dose available to the systemic circulation as free α-methyldopa ([1]; after an oral solution)	half-life [2]	absorption compared with the L isomer (humans, Au et al. 1972)	pharmacologic activity (literature, patients with hypertension)
C[C@](N)(Cc1ccc(O)c(O)c1)C(=O)O [α-methyldopa, L-α-Methyl-3,4-dihydroxyphenylalanine]	27%	25%	about 105 minutes		
C[C@@](N)(Cc1ccc(O)c(O)c1)C(=O)O [D-α-methyldopa, D-α-Methyl-3,4-dihydroxyphenylalanine]				much less readily absorbed	no pharmacologic activity
